No end group written: not given here.
The sequences below were run on E. coli ATCC 25922. Conditions: ATCC 25922, 24 h.
Type: cell-based, Escherichia coli
Procedure: The term “MIC” refers to minimal inhibitory concentration and will be defined as the lowest concentration of either soluble peptide or peptide immobilized on a polymer that results in total kill of bacteria.
The minimal inhibitory concentration (MIC) for the peptides was determined in sterile microtiter plates in a final volume of 200 μL using Trypticase Soy Broth (TSB; Difco Laboratories, Detroit, Mich.) as the growth medium. Serial two-fold dilutions of the peptide stock were made in the plate wells such that concentrations ranged from 512 to 2 μg/mL in a volume of 100 μL. Each well was then inoculated with 100 μL of a dilute suspension of bacteria in TSB yielding a final concentration of 1×10^4 bacteria/mL. The final peptide concentrations ranged from […]. The assay plates were incubated at 37° C. for 24 hours inside a Bioscreen C microtitre plate reader (Thermo Labsystems; Vantaa, Finland). Optical Density (OD) of the medium at 600 nm was recorded every 20 minutes to monitor cell growth. The lowest concentration of peptide preventing bacterial growth during the 24 hr period was defined as the MIC.
“FKAFKAFKAFKAFKA [SEQ ID NO: 4, FKAFKAFKAFKAFKA]” gave an MIC of 128 µg/mL.
With “FKAFKAFKAFKAFKAFKA [SEQ ID NO: 5, FKAFKAFKAFKAFKAFKA]” the MIC was 32 µg/mL.
With “LKALKALKALKALKR [SEQ ID NO: 1, LKALKALKALKALKR]” the MIC was 64 µg/mL.
In the case of “LKVLKVLKVLKVLKV [SEQ ID NO: 2, LKVLKVLKVLKVLKV]”, the MIC is reported as 32 µg/mL.
With “LKVLKVLKVLKVLKVLKV [SEQ ID NO: 3, LKVLKVLKVLKVLKVLKV]” the MIC was 4 µg/mL.

— patent US7563764B2, “Antimicrobial peptides based on tripeptide repeats” (E. I. du Pont de Nemours and Company, priority 2004, dated 2009)
